System: male Wister rats
Experiment: blood glucose-lowering activity in dexamethasone-treated rats
Assay type: in vivo
Conditions: male Wister rats given dexamethasone 0.5 mg/kg i.p. once a day for 4 days; test compound 100 mg/kg orally daily; serum glucose on day 4, 4 hours after dexamethasone, fasted 24 hours; versus control and normal groups
Method: The compounds of the present invention were tested for blood glucose-lowering activities in rats in the following manner.
That is, Dexamethasone (Decadron S injectable solution:made by Banyu Pharmaceutical Co.,Ltd.) was administered intraperitoneally to a group (test group) of 5 male Wister rats (6 weeks old) at a daily dose of 0.5 mg/kg, once a day for 4 days. Immediately after the administration of dexamethasone, a test compound (100 mg/kg) dissolved in 5% gum arabic solution was administered orally to rats daily. On day 4, the rats were decapitated 4 hours after the administration of dexamethasone. Blood was collected and centrifuged (3000 rpm, […], 15 minutes), then the glucose level in the obtained serum was measured by the use of Glucose cII Test Wako (made by Wako Pure Chemical Industries, Ltd.). The rats were maintained on a diet ad libitum and then fasted 24 hours before the collection of blood.
Animals which were given 5% gum arabic solution instead of a test compound were served as a control group and those which were maintained merely on a diet ad libitum were served as a normal group. The serum glucose levels of them were measured according to the same manner as above. The decrease rate of blood glucose level was determined by the value (mean value) of each group from the following equation. [formula]

Point of comparison: `CCOP(=O)(OCC)C(=O)Nc1cc(Cl)ccc1C(=O)NC` [Example 51, Diethyl N-[5-chloro-2-(N-methylcarbamoyl)phenyl]carbamoyl phosphonate], “Decrease rate (%) in blood glucose level” value 17%. Against it:
- CCOP(=O)(CCCC(=O)Nc1cc(Cl)cc(Cl)c1C(=O)NC)OCC [Example 7, diethyl 3-[N-[3,5-dichloro-2-(N-methylcarbamoyl)phenyl]carbamoyl]propylphosphonate] — higher, 30%
- CCOP(=O)(CCCC(=O)Nc1c(Cl)cc(Cl)cc1C(=O)NC)OCC [Example 8, diethyl 3-[N-[4,6-dichloro-2-(N-methylcarbamoyl)phenyl]-carbamoyl]propylphosphonate] — higher, 39%
- CCOP(=O)(CCCC(=O)Nc1cccc(Cl)c1C(=O)Nc1ccccc1)OCC [Example 31, diethyl 3-[N-[3-chloro-2-(N-phenylcarbamoyl)phenyl]carbamoyl]propylphosphonate] — higher, 59%
